Among the test systems are DU-145 prostate; RPMI-8226 leukemia; TK-10 renal; NCI-H460 lung; UACC-257 melanoma; NCI-H226 lung; NCI-H23 lung; UACC-62 melanoma; SF-539 CNS; HCC-2998 colon; NCI/ADR-RES ovarian; IGROV1 ovarian; EKVX NSCLC; UO-31 renal; COLO 205 colon; SNB-75 CNS; K-562 leukemia.
Assay in all cases: NCI-60 cell line screen, 48 h

Molecules are shown by their SMILES.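 Five concentrations, 48 hours, 96-well plates. Definition used: TGI = concentration required for complete inhibition of growth.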 Bounds are passed on as bounds.

The text below walks through data of PubChem BioAssay (NCI).

For `COC1/C=C/C(C)C(C(C)C(OC)C(C)CCC(=O)C(C)C(C/C=C/N(C)C=O)OC)OC(=O)C=CC2OC2(C)CC(OC)C(OC)C2=CC(=O)O[C@@H](C(C)C(OC)CC(OC)/C=C/C(C)C(O)C1)[C@H]2O` (stereo partly specified), the TGI in the test with DU-145 prostate was 0.199 µM; in the test on RPMI-8226 leukemia it was above 1.24 µM; in the test with TK-10 renal, 0.0304 µM; in the test on NCI-H460 lung it was above 0.351 µM; in the test on UACC-257 melanoma it was 0.0492 µM; with NCI-H226 lung, 0.0164 µM. Besides, the TGI in the test on NCI-H23 lung is above 0.322 µM; in the test with UACC-62 melanoma, 0.0514 µM; with SF-539 CNS, 0.00742 µM; with HCC-2998 colon it was 0.0584 µM; in the test with NCI/ADR-RES ovarian it was 0.263 µM; in the test with IGROV1 ovarian it was 0.00369 µM. The TGI in the test on EKVX NSCLC is 0.0163 µM; in the test on UO-31 renal, 0.00831 µM.

Consider `Cc1n[nH]c(=O)n1N1C(=O)CCCC1=O`, for which the TGI with DU-145 prostate, in the test with COLO 205 colon, in the test with TK-10 renal, with UACC-257 melanoma, in the test on NCI-H226 lung and with NCI-H23 lung was above 100 µM in each case. Also, the TGI in the test with UACC-62 melanoma, in the test with SF-539 CNS, in the test with HCC-2998 colon, with NCI/ADR-RES ovarian, in the test on IGROV1 ovarian and with EKVX NSCLC was above 100 µM each time. For the same compound, the TGI in the test on SNB-75 CNS and with K-562 leukemia was above 100 µM throughout.

In the case of `Nc1n[n+](CC(=O)c2ccccc2)c2sc(-c3ccccc3)nn12`, the TGI in the test with DU-145 prostate, with COLO 205 colon, with RPMI-8226 leukemia, in the test with TK-10 renal, with NCI-H460 lung and in the test with UACC-257 melanoma was above 100 µM in each case. Moreover, the TGI with NCI-H226 lung was above 100 µM; with NCI-H23 lung, above 100 µM; with UACC-62 melanoma, 82.7 µM; in the test with SF-539 CNS, above 100 µM; in the test on NCI/ADR-RES ovarian, above 100 µM; in the test on IGROV1 ovarian it was above 100 µM. For the same compound, the TGI in the test with EKVX NSCLC, with UO-31 renal, in the test with SNB-75 CNS and in the test with K-562 leukemia was above 100 µM throughout.

Turning to `O=C(O)C12C3CCC(CC3)C1(C(=O)O)C1CCC2C1` (stereo unspecified), the TGI in the test with DU-145 prostate, in the test with COLO 205 colon, in the test on RPMI-8226 leukemia, in the test on TK-10 renal, with NCI-H460 lung and in the test with UACC-257 melanoma was above 100 µM in each case. In addition, the TGI in the test on NCI-H226 lung, in the test with NCI-H23 lung, in the test with UACC-62 melanoma, in the test on SF-539 CNS, in the test on HCC-2998 colon and with NCI/ADR-RES ovarian was above 100 µM each time. The TGI with IGROV1 ovarian, in the test on UO-31 renal, with SNB-75 CNS and in the test on K-562 leukemia was above 100 µM each time.

Turning to `CC1(C)C=Cc2c(cc(O)c3c(=O)c4cc(Cl)ccc4[nH]c23)O1`, the TGI is above 10 µM with COLO 205 colon; 6.27 µM in the test on RPMI-8226 leukemia; above 10 µM with TK-10 renal; above 10 µM in the test with NCI-H460 lung; above 10 µM with UACC-257 melanoma; 6.54 µM in the test with NCI-H23 lung. Moreover, the TGI was above 10 µM with UACC-62 melanoma; above 10 µM in the test on SF-539 CNS; above 10 µM in the test on HCC-2998 colon; 5.97 µM in the test on NCI/ADR-RES ovarian; above 10 µM in the test with IGROV1 ovarian; above 10 µM with EKVX NSCLC. In addition, the TGI is 5.91 µM in the test with UO-31 renal, above 10 µM in the test on SNB-75 CNS and above 10 µM with K-562 leukemia.

Regarding `CCc1nn(CN2CCOCC2)c(=S)n1/N=C/c1ccc(-c2ccc(Cl)cc2)o1`, the TGI in the test on DU-145 prostate, with RPMI-8226 leukemia, with TK-10 renal, in the test on NCI-H460 lung, in the test on UACC-257 melanoma and with NCI-H226 lung was above 100 µM each time. For the same compound, the TGI in the test on NCI-H23 lung, in the test on SF-539 CNS, with NCI/ADR-RES ovarian, in the test on IGROV1 ovarian, in the test on EKVX NSCLC and in the test with UO-31 renal was above 100 µM throughout. Further, the TGI in the test on SNB-75 CNS and in the test on K-562 leukemia was above 100 µM in each case.

With `CN1c2ccccc2C(=O)NC12CCN(CCCC(=O)c1ccc(F)cc1)CC2`, the TGI with DU-145 prostate is above 100 µM; in the test on COLO 205 colon, 30.4 µM; in the test with RPMI-8226 leukemia it was above 100 µM; in the test with UACC-257 melanoma, 87.6 µM; in the test on NCI-H226 lung, above 100 µM; in the test on NCI-H23 lung, above 100 µM. Further, the TGI is above 100 µM in the test on UACC-62 melanoma; above 100 µM in the test with SF-539 CNS; 40.3 µM in the test on HCC-2998 colon; above 100 µM in the test with NCI/ADR-RES ovarian; above 100 µM in the test with IGROV1 ovarian; above 100 µM in the test on EKVX NSCLC. The TGI with UO-31 renal was above 100 µM; in the test on SNB-75 CNS, above 100 µM; in the test with K-562 leukemia it was 77.8 µM.

For the compound `COc1ccc(C2SCC(=O)N2c2ccc(-c3ccc(-n4c(-c5ccccc5)nc5ccccc5c4=O)cc3)cc2)cc1OC` (stereo unspecified), the TGI was above 100 µM in the test with DU-145 prostate; above 100 µM with COLO 205 colon; above 100 µM in the test on RPMI-8226 leukemia; 83.9 µM with TK-10 renal; above 100 µM in the test on NCI-H460 lung; above 100 µM with UACC-257 melanoma. The TGI with NCI-H226 lung, in the test on NCI-H23 lung, with UACC-62 melanoma, with SF-539 CNS, with NCI/ADR-RES ovarian and in the test on IGROV1 ovarian was above 100 µM in each case. The TGI with EKVX NSCLC is above 100 µM; with UO-31 renal it was above 100 µM; with SNB-75 CNS it was above 100 µM; in the test on K-562 leukemia, 96 µM.

As for `CCOC(=O)/C(C=Nc1c(C)n(C)n(-c2ccccc2)c1=O)=C(/C)O`, the TGI with DU-145 prostate, with COLO 205 colon, in the test on RPMI-8226 leukemia, with TK-10 renal, with UACC-257 melanoma and in the test on NCI-H226 lung was above 100 µM throughout. Moreover, the TGI in the test on NCI-H23 lung, with UACC-62 melanoma, in the test with SF-539 CNS, in the test with HCC-2998 colon, with NCI/ADR-RES ovarian and in the test with IGROV1 ovarian was above 100 µM in each case. The TGI in the test on EKVX NSCLC, in the test with UO-31 renal, with SNB-75 CNS and with K-562 leukemia was above 100 µM throughout.
